Source: patent publication US6525001B1, “Substituted pyrimidine and pyridine herbicides” (Mid-American Commercialization Corporation, priority 1997, dated 2003)

Experiments:
Test in all cases: Test B pre-/postemergence
Assay type in all cases: in vivo
Design in all cases: key: 0 is no effect; 10 is complete control
rape (Brassica napus) = system: rape (Brassica napus)
Outline: (§1)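 Response scores run from 0, meaning no effect, to 10, meaning complete control, assigned by eye relative to controls twelve to sixteen days after spraying. Treatment was both preemergence on planted seed and postemergence on plants at the 1- to 4-leaf stage.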

[1] = system: pigweed (Amaranthus retroflexus)
Outline: as §1

[2] = system: crabgrass (Digitaria sanguinalis)
Outline: as §1

[3] = system: broadleaf signalgrass (Brachiaria decumbens)
Outline: as §1

[4] = system: momingglory (Ipomoea hederacea)
Outline: as §1

soybean (Glycine max) = system: soybean (Glycine max)
Outline: as §1

[5] = system: giant foxtail (Setaria faberii)
Outline: as §1

corn (Zea mays) = system: corn (Zea mays)
Outline: as §1

[6] = system: wheat (Triticum aestivum)
Outline: as §1

[7] = system: sugar beet (Beta vulgaris)
Outline: as §1

[8] = system: velvetleaf (Abutilon theophrasti)
Outline: as §1

[9] = system: bedstraw (Galium aparine)
Outline: as §1

[10] = system: purple nutsedge (Cyperus rotundus)
Outline: as §1

[11] = system: cocklebur (Xanthium strumarium)
Outline: as §1

Cc1cnc(-c2ccc(OC(F)(F)F)cc2)nc1Cc1cccc(C(F)(F)F)c1 [Compound 16]
1: Plant response rating, Rape (rape (Brassica napus); Rate 62 g/ha, Postemergence) | Plant response rating, Rape (rape (Brassica napus); Rate 500 g/ha, Preemergence) | Plant response rating, B. signalgrass ([3]; Rate 62 g/ha, Postemergence) | Plant response rating, B. signalgrass ([3]; Rate 125 g/ha, Postemergence) | Plant response rating, B. signalgrass ([3]; Rate 250 g/ha, Postemergence) | Plant response rating, B. signalgrass ([3]; Rate 500 g/ha, Postemergence) | Plant response rating, Morningglory ([4]; Rate 125 g/ha, Postemergence) | Plant response rating, Morningglory ([4]; Rate 250 g/ha, Postemergence) | Plant response rating, Morningglory ([4]; Rate 500 g/ha, Postemergence) | Plant response rating, Morningglory ([4]; Rate 500 g/ha, Preemergence) | Plant response rating, Giant foxtail ([5]; Rate 62 g/ha, Postemergence) | Plant response rating, Giant foxtail ([5]; Rate 125 g/ha, Postemergence) | Plant response rating, Giant foxtail ([5]; Rate 250 g/ha, Postemergence) | Plant response rating, Corn (corn (Zea mays); Rate 62 g/ha, Postemergence) | Plant response rating, Corn (corn (Zea mays); Rate 125 g/ha, Postemergence) | Plant response rating, Corn (corn (Zea mays); Rate 250 g/ha, Postemergence) | Plant response rating, Corn (corn (Zea mays); Rate 500 g/ha, Postemergence) | Plant response rating, Wheat ([6]; Rate 500 g/ha, Postemergence) | Sugarbeets plant response rating ([7]; Rate 125 g/ha, Preemergence) | Plant response rating, Velvetleaf ([8]; Rate 62 g/ha, Postemergence) | Plant response rating, Velvetleaf ([8]; Rate 250 g/ha, Preemergence) | Plant response rating, Velvetleaf ([8]; Rate 500 g/ha, Preemergence) | Plant response rating, Bedstraw ([9]; Rate 500 g/ha, Preemergence) | Plant response rating, Nutsedge ([10]; Rate 500 g/ha, Postemergence)
8: Plant response rating, Redroot pigweed ([1]; Rate 250 g/ha, Postemergence) | Plant response rating, Redroot pigweed ([1]; Rate 250 g/ha, Preemergence) | Plant response rating, Redroot pigweed ([1]; Rate 500 g/ha, Preemergence) | Plant response rating, Crabgrass ([2]; Rate 500 g/ha, Preemergence) | Plant response rating, Giant foxtail ([5]; Rate 500 g/ha, Preemergence) | Plant response rating, Sugarbeets ([7]; Rate 62 g/ha, Postemergence) | Plant response rating, Sugarbeets ([7]; Rate 125 g/ha, Postemergence)
5: Plant response rating, Rape (rape (Brassica napus); Rate 500 g/ha, Postemergence) | Plant response rating, Redroot pigweed ([1]; Rate 62 g/ha, Postemergence) | Plant response rating, Bedstraw ([9]; Rate 500 g/ha, Postemergence) | Plant response rating, Cocklebur ([11]; Rate 250 g/ha, Postemergence)
4: Plant response rating, Soybean (soybean (Glycine max); Rate 250 g/ha, Postemergence) | Plant response rating, Soybean (soybean (Glycine max); Rate 500 g/ha, Postemergence) | Plant response rating, Bedstraw ([9]; Rate 125 g/ha, Postemergence) | Plant response rating, Bedstraw ([9]; Rate 250 g/ha, Postemergence) | Plant response rating, Cocklebur ([11]; Rate 62 g/ha, Postemergence) | Plant response rating, Cocklebur ([11]; Rate 125 g/ha, Postemergence)
7: Plant response rating, Crabgrass ([2]; Rate 500 g/ha, Postemergence) | Plant response rating, B. signalgrass ([3]; Rate 500 g/ha, Preemergence) | Plant response rating, Giant foxtail ([5]; Rate 250 g/ha, Preemergence) | Plant response rating, Sugarbeets ([7]; Rate 250 g/ha, Preemergence)
6: Plant response rating, Redroot pigweed ([1]; Rate 125 g/ha, Postemergence) | Plant response rating, Cocklebur ([11]; Rate 500 g/ha, Postemergence)
0: Rape plant response rating (rape (Brassica napus); Rate 62 g/ha, Preemergence) | Rape plant response rating (rape (Brassica napus); Rate 125 g/ha, Preemergence) | Plant response rating, Rape (rape (Brassica napus); Rate 250 g/ha, Preemergence) | Redroot pigweed plant response rating ([1]; Rate 62 g/ha, Preemergence) | Redroot pigweed plant response rating ([1]; Rate 125 g/ha, Preemergence) | Crabgrass plant response rating ([2]; Rate 62 g/ha, Preemergence) | Crabgrass plant response rating ([2]; Rate 125 g/ha, Preemergence) | B. signalgrass plant response rating ([3]; Rate 62 g/ha, Preemergence) | Morningglory plant response rating ([4]; Rate 62 g/ha, Preemergence) | Morningglory plant response rating ([4]; Rate 125 g/ha, Preemergence) | Plant response rating, Morningglory ([4]; Rate 250 g/ha, Preemergence) | Soybean plant response rating (soybean (Glycine max); Rate 62 g/ha, Preemergence) | Soybean plant response rating (soybean (Glycine max); Rate 125 g/ha, Preemergence) | Plant response rating, Soybean (soybean (Glycine max); Rate 250 g/ha, Preemergence) | Plant response rating, Soybean (soybean (Glycine max); Rate 500 g/ha, Preemergence) | Giant foxtail plant response rating ([5]; Rate 62 g/ha, Preemergence) | Corn plant response rating (corn (Zea mays); Rate 62 g/ha, Preemergence) | Corn plant response rating (corn (Zea mays); Rate 125 g/ha, Preemergence) | Plant response rating, Corn (corn (Zea mays); Rate 250 g/ha, Preemergence) | Plant response rating, Corn (corn (Zea mays); Rate 500 g/ha, Preemergence) | Plant response rating, Wheat ([6]; Rate 62 g/ha, Postemergence) | Wheat plant response rating ([6]; Rate 62 g/ha, Preemergence) | Plant response rating, Wheat ([6]; Rate 125 g/ha, Postemergence) | Wheat plant response rating ([6]; Rate 125 g/ha, Preemergence) | Plant response rating, Wheat ([6]; Rate 250 g/ha, Postemergence) | Plant response rating, Wheat ([6]; Rate 250 g/ha, Preemergence) | Plant response rating, Wheat ([6]; Rate 500 g/ha, Preemergence) | Sugarbeets plant response rating ([7]; Rate 62 g/ha, Preemergence) | Velvetleaf plant response rating ([8]; Rate 62 g/ha, Preemergence) | Velvetleaf plant response rating ([8]; Rate 125 g/ha, Preemergence) | Bedstraw plant response rating ([9]; Rate 62 g/ha, Preemergence) | Bedstraw plant response rating ([9]; Rate 125 g/ha, Preemergence) | Plant response rating, Bedstraw ([9]; Rate 250 g/ha, Preemergence) | Plant response rating, Nutsedge ([10]; Rate 62 g/ha, Postemergence) | Nutsedge plant response rating ([10]; Rate 62 g/ha, Preemergence) | Plant response rating, Nutsedge ([10]; Rate 125 g/ha, Postemergence) | Nutsedge plant response rating ([10]; Rate 125 g/ha, Preemergence) | Plant response rating, Nutsedge ([10]; Rate 250 g/ha, Postemergence) | Plant response rating, Nutsedge ([10]; Rate 250 g/ha, Preemergence) | Plant response rating, Nutsedge ([10]; Rate 500 g/ha, Preemergence) | Cocklebur plant response rating ([11]; Rate 62 g/ha, Preemergence) | Cocklebur plant response rating ([11]; Rate 125 g/ha, Preemergence) | Plant response rating, Cocklebur ([11]; Rate 250 g/ha, Preemergence) | Plant response rating, Cocklebur ([11]; Rate 500 g/ha, Preemergence)
3: Plant response rating, B. signalgrass ([3]; Rate 250 g/ha, Preemergence) | Plant response rating, Soybean (soybean (Glycine max); Rate 62 g/ha, Postemergence) | Plant response rating, Soybean (soybean (Glycine max); Rate 125 g/ha, Postemergence) | Giant foxtail plant response rating ([5]; Rate 125 g/ha, Preemergence) | Plant response rating, Giant foxtail ([5]; Rate 500 g/ha, Postemergence) | Plant response rating, Bedstraw ([9]; Rate 62 g/ha, Postemergence)
9: Plant response rating, Redroot pigweed ([1]; Rate 500 g/ha, Postemergence) | Plant response rating, Sugarbeets ([7]; Rate 250 g/ha, Postemergence) | Plant response rating, Sugarbeets ([7]; Rate 500 g/ha, Postemergence) | Plant response rating, Sugarbeets ([7]; Rate 500 g/ha, Preemergence)
2: Plant response rating, Rape (rape (Brassica napus); Rate 125 g/ha, Postemergence) | Plant response rating, Rape (rape (Brassica napus); Rate 250 g/ha, Postemergence) | Plant response rating, Crabgrass ([2]; Rate 62 g/ha, Postemergence) | Plant response rating, Crabgrass ([2]; Rate 125 g/ha, Postemergence) | Plant response rating, Crabgrass ([2]; Rate 250 g/ha, Postemergence) | Plant response rating, Crabgrass ([2]; Rate 250 g/ha, Preemergence) | B. signalgrass plant response rating ([3]; Rate 125 g/ha, Preemergence) | Plant response rating, Velvetleaf ([8]; Rate 125 g/ha, Postemergence) | Plant response rating, Velvetleaf ([8]; Rate 250 g/ha, Postemergence) | Plant response rating, Velvetleaf ([8]; Rate 500 g/ha, Postemergence)
